From patent publication US8398970B2, “Method of preventing early Lawsonia intracellularis infections” (priority 2007, dated 2013) come the findings set out here.

This experiment concerns Lawsonia intracellularis. The experiment is described as follows: Embedded early vaccination field study: performance of weaned piglets during the rearing period. It is filed as in vivo. As for the experimental part: The study was carried out in a unit in North Rhine Westphalia with 160 sows and 600 breeding stalls, producing to a weekly cycle with four weeks' suckling. The piglets are sold on for fattening once they reach about 30 kg.
The unit was chosen because clinical ileitis occurred in the rearing quarters of the unit if the animals were not treated with an antibiotic effective against Lawsonia intracellularis for 10 days from the weaning time onwards. More detailed diagnosis found. Lawsonia intracellularis in the faeces of the clinically sick animals and other diarrhea-causing pathogens were ruled out.
Within the course of the study all the piglets were weighed on removal from the sows and individually marked with progressive numbering using an ear tag. A blood sample was taken from each of 15 piglets in each group of weaned animals on the day of removal from the sow and this blood was tested for antibodies to Lawsonia intracellularis. The weaned piglets were put into pens in groups of 10 animals. Four days after weaning every second group of weaned animals was vaccinated with Enterisol® Ileitis (Boehringer Ingelheim) in accordance with the manufacturer's instructions through the drinking water in their trough. The other groups remained unvaccinated. After 3 days without antibiotics following the ileitis vaccination, the piglets of all the weaned groups were subjected to tylosin therapy (10 mg/kg KGW Tylae G 25, Elanco Animal Health) for 18 days starting from the 8th day after weaning. The unvaccinated weaned piglets were also treated with tylosin in the same dosage for 18 days starting from the 8th day after weaning.
On the day of release from their pens, all the piglets were again weighed individually. In addition, blood samples were taken from 10 piglets in each market batch, and the samples were examined for antibodies to Lawsonia intracellularis using ELISA. All the study groups were subjected to identical care and feed conditions. The study encompasses a total of 891 piglets. The absolute weight gain and daily increase in growth were calculated from the weights on removal from the sows and release from the pens. The rearing period was ascertained using the weaning date and date of sale.

Turning to `CC[C@H]1OC(=O)C[C@@H](O)[C@H](C)[C@@H](O[C@@H]2O[C@H](C)[C@@H](O[C@H]3C[C@@](C)(O)[C@@H](O)[C@H](C)O3)[C@H](N(C)C)[C@H]2O)[C@@H](CC=O)C[C@@H](C)C(=O)/C=C/C(C)=C/[C@@H]1CO[C@@H]1O[C@H](C)[C@@H](O)[C@@H](OC)[C@H]1OC` [tylosin], under “average, weaning date to date of sale”, the rearing period was found to be 52.9 days. In addition, the “breeding pens blocked longer than pens containing vaccinated groups” value (difference in maximum rearing period) was 17 days. The “average gain per day” value (during rearing period) is listed as 404 g per day. This compound displayed a Max. growth period (maximum rearing period) of 96 days. Where the note is “mean daily weight gain during rearing period”, this compound displayed a daily increase of 404 g. The sale weight (mean weight at end of rearing period) is 29.26 kg. Moreover, the Min. growth period (shortest time after which a piglet was sent on for fattening) came out at 31 days.
